Test results: ChEMBL document CHEMBL1156829 (Proc Natl Acad Sci U S A, 2008)

What was measured:
[1] = tested on: Plasmodium falciparum; assay: NOVARTIS: Inhibition of Plasmodium falciparum 3D7 (drug-susceptible) proliferation in erythrocyte-based infection assay; format: functional, organism-based; details: Plasmodium falciparum, 3D7
[2] = tested on: Plasmodium falciparum; assay: NOVARTIS: Inhibition of Plasmodium falciparum W2 (drug-resistant) proliferation in erythrocyte-based infection assay; format: functional, organism-based; details: Plasmodium falciparum, W2; read-out: EC50
[3] = NOVARTIS: Cytotoxicity against human hepatocellular carcinoma cell line (Huh7); format: toxicity, cell-based, Huh-7; details: Huh7 cells (hepatocellular carcinoma cell line)

SMILES: CCCCCCN(C(=O)c1ccc2c(c1)OCO2)C(CC)c1nc2ccccc2c(=O)n1-c1ccccc1OC (stereo not given)
- EC50 [1]: 862 nM
- EC50 [2]: 647 nM
- CC50 [3]: > 4510 nM

SMILES: ClC12CC3CC(C1)CC(n1nnc4ccccc41)(C3)C2
- EC50 [1]: > 1250 nM
- EC50 [2]: > 1020 nM
- CC50 [3]: > 10000 nM

SMILES: Cn1nc(C(F)(F)F)c(C(=O)Nc2ccc(Cl)cc2)c1Sc1ccc(Cl)cc1
- EC50 [1]: 749 nM
- EC50 [2]: 369 nM
- CC50 [3]: 34800 nM

SMILES: NC(=N[N+](=O)[O-])Nc1ccc(NC(=O)Nc2ccc(Cl)cc2)cc1
- EC50 [1]: > 900 nM
- EC50 [2]: 298 nM
- CC50 [3]: > 9610 nM

SMILES: O=C(CCl)NCCCN(C(=O)Nc1ccc(Cl)c(Cl)c1)c1ccccc1
- EC50 [1]: 217 nM
- EC50 [2]: 74 nM
- CC50 [3]: > 931 nM

SMILES: Cc1cc2c(cc1C)N(C(=O)c1ccccc1)C(C)(C)c1ssc(=S)c1-2
- EC50 [1]: 600 nM
- EC50 [2]: 572 nM
- CC50 [3]: > 100000 nM

SMILES: O=c1ccc2cc(Cl)c(O)c(Cl)c2o1
- EC50 [1]: > 1250 nM
- EC50 [2]: > 234 nM
- CC50 [3]: > 10000 nM

SMILES: O=C(CCn1c(=O)[nH]c2ccccc21)NCC1Cc2cccc(-c3ccncc3)c2O1 (stereo not given)
- EC50 [1]: 3250 nM
- EC50 [2]: 2980 nM
- CC50 [3]: > 100000 nM

SMILES: Nc1ccc(-c2nc3ccc(-c4nc5ccc(N)cc5[nH]4)cc3[nH]2)cc1
- EC50 [1]: 120 nM
- EC50 [2]: 55.6 nM
- CC50 [3]: > 100000 nM

SMILES: Cc1cc(-c2cnc(C)nc2C2CCN(C(=O)c3ccc4ncccc4c3)CC2)on1
- EC50 [1]: > 917 nM
- EC50 [2]: 420 nM
- CC50 [3]: > 11600 nM

SMILES: COc1cc(NC(C)CCCN(Cc2ccc(N(C)C)cc2)S(=O)(=O)c2c(C)cc(C)cc2C)c2ncccc2c1 (stereo not given)
- EC50 [1]: 533 nM
- EC50 [2]: < 13.4 nM
- CC50 [3]: > 10600 nM

SMILES: Cc1ccc(C(=O)NCCNC(=O)CN2CCOCC2)cc1
- EC50 [1]: > 671 nM
- EC50 [2]: > 1250 nM
- CC50 [3]: > 10000 nM

SMILES: CCOC(=O)C1CCN(C(=O)c2cc(C(C)(C)C)nn2Cc2ccc(Cl)cc2Cl)CC1
- EC50 [1]: 340 nM
- EC50 [2]: 576 nM
- CC50 [3]: > 100000 nM

SMILES: O=C(NCc1ccccc1)c1cnc(NCCC(c2ccccc2)c2ccccc2)nc1NC1CC1
- EC50 [1]: > 1160 nM
- EC50 [2]: < 15.8 nM
- CC50 [3]: > 10000 nM

SMILES: COc1ccc(C2C(C(=O)Nc3cc(C)on3)c3ccccc3C(=O)N2C2CCCCC2)cc1 (stereo not given)
- EC50 [1]: 895 nM
- EC50 [2]: > 1030 nM
- CC50 [3]: > 10000 nM

SMILES: Cc1nc(-c2ccccc2)nc(C(=O)N2CCN(C(=O)/C=C/c3ccccc3)C(C)C2)c1C(=O)OC(C)C (stereo not given)
- EC50 [1]: > 1250 nM
- EC50 [2]: 621 nM
- CC50 [3]: > 10000 nM

SMILES: O=C(NCCc1ccccc1)c1cnc(NCCCn2ccnc2)nc1Nc1ccccc1
- EC50 [1]: 552 nM
- EC50 [2]: 843 nM
- CC50 [3]: > 10000 nM

SMILES: Cc1ccc(Nc2nc3c(N)nnc(N)c3nc2Nc2ccc(C)cc2)cc1
- EC50 [1]: 6120 nM
- EC50 [2]: 2210 nM
- CC50 [3]: 13300 nM

SMILES: CCCCN(C)C(=O)c1sc2ncn(CC(=O)N(CC)CC)c(=O)c2c1C
- EC50 [1]: > 1250 nM
- EC50 [2]: > 1010 nM
- CC50 [3]: > 10000 nM

SMILES: CC1(C)N=C(N)N=C(N)N1c1ccc(Br)cc1
- EC50 [1]: 0.592 nM
- EC50 [2]: 533 nM
- CC50 [3]: > 10000 nM

SMILES: Cc1nc(C(C)N(C)Cc2c(C(=O)N3CCCCCCC3)nc3sccn23)c(C)s1 (stereo not given)
- EC50 [1]: > 7030 nM
- EC50 [2]: 825 nM
- CC50 [3]: > 100000 nM

SMILES: CCN(CCN1CCN(S(=O)(=O)c2cc(Cl)ccc2Cl)CC1)CC1=CCC2CC1C2(C)C (stereo not given)
- EC50 [1]: 1790 nM
- EC50 [2]: 289 nM
- CC50 [3]: > 10000 nM

SMILES: Cc1c(CN2CCC(N3CCC(C(=O)NC4CC4)CC3)CC2)[nH]c2c(Cl)cccc12
- EC50 [1]: 345 nM
- EC50 [2]: 1400 nM
- CC50 [3]: 56500 nM

SMILES: CC[n+]1c(C)cc2c([nH]c3ccccc32)c1C
- EC50 [1]: 1240 nM
- EC50 [2]: 3000 nM
- CC50 [3]: > 100000 nM

SMILES: CN(C)c1nnc(/C(C#N)=C/c2cc(C(=O)c3cccc(Cl)c3)cn2C)o1
- EC50 [1]: 936 nM
- EC50 [2]: > 1250 nM
- CC50 [3]: > 10000 nM

SMILES: COc1ccc(CN2CCc3nc(N4CCCCC4)sc3C2)cc1
- EC50 [1]: 293 nM
- EC50 [2]: 301 nM
- CC50 [3]: > 10000 nM

SMILES: CCC(=O)N=c1sc2cc([N+](=O)[O-])ccc2n1CCOC
- EC50 [1]: > 686 nM
- EC50 [2]: > 1250 nM
- CC50 [3]: > 10000 nM

SMILES: CC1CCCC(NC(=O)C2N(CCN3CCCCC3C)C(=O)C3C(C(=O)Nc4cccc(Cl)c4)C4C=CC32O4)C1C (stereo not given)
- EC50 [1]: > 10400 nM
- EC50 [2]: 4610 nM
- CC50 [3]: 47700 nM

SMILES: O=C(CSc1nnc2c(n1)[nH]c1ccccc12)Nc1ccc([N+](=O)[O-])cc1
- EC50 [1]: 9110 nM
- EC50 [2]: > 12500 nM
- CC50 [3]: > 100000 nM

SMILES: CCn1c2ccccc2c2cc(C=NNC(=O)c3nnn(-c4nonc4N)c3-c3ccccc3)ccc21
- EC50 [1]: > 1250 nM
- EC50 [2]: > 760 nM
- CC50 [3]: > 10000 nM

SMILES: CCOC(=O)c1c(CNCCN(CC)CC)n(C)c2cc(Br)c(O)cc12
- EC50 [1]: 515 nM
- EC50 [2]: 185 nM
- CC50 [3]: > 100000 nM

SMILES: CCOC(=O)c1cccc(NC(=O)CC2C(=O)N(c3ccccc3)C(=O)N2C2CCCC2)c1 (stereo not given)
- EC50 [1]: 276 nM
- EC50 [2]: 88.4 nM
- CC50 [3]: > 100000 nM

SMILES: CCOC(=O)c1cnc2c(C)cccc2c1Nc1cccc(C(C)=O)c1
- EC50 [1]: 1020 nM
- EC50 [2]: 607 nM
- CC50 [3]: > 100000 nM

SMILES: CCN1C(=S)NC2c3cc(C)ccc3OC13CCCC23 (stereo not given)
- EC50 [1]: 164 nM
- EC50 [2]: 111 nM
- CC50 [3]: > 100000 nM

SMILES: CN(C)CCn1cnc2sc3c(c2c1=O)CCC(NCc1cccc(Cl)c1)C3 (stereo not given)
- EC50 [1]: 748 nM
- EC50 [2]: 479 nM
- CC50 [3]: 18900 nM

SMILES: OC(CN1CCOCC1)Cn1c2ccc(Br)cc2c2cc(Br)ccc21 (stereo not given)
- EC50 [1]: 991 nM
- EC50 [2]: 440 nM
- CC50 [3]: 47400 nM

SMILES: O=C(NC(Cc1ccccc1)c1nnc(SCc2ccc(F)cc2)n1-c1ccc(Cl)cc1Cl)C1CCCCC1 (stereo not given)
- EC50 [1]: 748 nM
- EC50 [2]: 350 nM
- CC50 [3]: 1660 nM

SMILES: O=C(NCc1ccco1)C1CCN(S(=O)(=O)c2ccc(Cl)cc2)CC1
- EC50 [1]: 514 nM
- EC50 [2]: 355 nM
- CC50 [3]: > 100000 nM

SMILES: FC(F)(F)c1cccc(-c2cncc(N3CCN(c4ccccn4)CC3)n2)c1
- EC50 [1]: 5770 nM
- EC50 [2]: 1910 nM
- CC50 [3]: 45700 nM

SMILES: COc1ccc(NC(=O)CCCCCn2c(SCC(=O)c3ccccc3)nc3ccsc3c2=O)cc1
- EC50 [1]: 3120 nM
- EC50 [2]: 3760 nM
- CC50 [3]: > 100000 nM

SMILES: Cc1ccccc1N1C(=O)C2C3c4ccccc4C(C(=O)O)(c4ccccc43)C2C1=O (stereo not given)
- EC50 [1]: > 12500 nM
- EC50 [2]: 2190 nM
- CC50 [3]: > 100000 nM

SMILES: CC(=O)c1ccc2c3c(onc13)-c1ccccc1C2=O
- EC50 [1]: 2250 nM
- EC50 [2]: 791 nM
- CC50 [3]: > 100000 nM

SMILES: Cc1ccc(NC(=O)c2ccc(NCCCN3CCCCCC3)c([N+](=O)[O-])c2)cc1F
- EC50 [1]: 94.1 nM
- EC50 [2]: 371 nM
- CC50 [3]: 16900 nM

SMILES: CCOC(=O)c1cnc2ccccc2c1Nc1ccc(OC)c(OC)c1
- EC50 [1]: 66.5 nM
- EC50 [2]: 84.6 nM
- CC50 [3]: 85400 nM

SMILES: COc1ccccc1N1CCN(c2ccc(NC(=O)c3ccc(F)cc3)cc2C(=O)N2CCCC2)CC1
- EC50 [1]: > 1250 nM
- EC50 [2]: 149 nM
- CC50 [3]: > 10000 nM

SMILES: CCCN1CCN(CCCNC(=O)c2ccc3c(c2)sc2nc(-c4ccc(OC)cc4)cn23)CC1
- EC50 [1]: 2440 nM
- EC50 [2]: 4380 nM
- CC50 [3]: > 100000 nM

SMILES: CC(=O)N1CCOC1C(C)(C)CC=C(C)CCC=C(C)C (stereo not given)
- EC50 [1]: 2040 nM
- EC50 [2]: 1340 nM
- CC50 [3]: > 100000 nM

SMILES: Cc1cc(N2CCCCC2)nc2ccc(NC(=O)c3cccc([N+](=O)[O-])c3)cc12
- EC50 [1]: 440 nM
- EC50 [2]: 793 nM
- CC50 [3]: > 100000 nM

SMILES: Cc1ccc(-c2nnc(NCc3ccccc3)c3ccccc23)cc1S(=O)(=O)NCC1CCCO1 (stereo not given)
- EC50 [1]: 1850 nM
- EC50 [2]: 2570 nM
- CC50 [3]: > 100000 nM

SMILES: Cc1ccc(Nc2nc3nonc3nc2N(C)C)cc1Cl
- EC50 [1]: > 1460 nM
- EC50 [2]: 1610 nM
- CC50 [3]: > 10000 nM
